Each structure is given as a SMILES string. Values joined by “and” are separate entries in the source; they are usually repeats but may differ in a detail not shown here. Equal entries are not always repeated. Where two headings read alike, the source gives them in different places.

Data set [1] concerns human whole blood aggregation. Briefly: Inhibition by Compound A of human whole blood aggregation (Impedance method). The data set is classed as cell-based. The method, then:
(§1) Blood was taken from median cubital vein or cephalic vein of normal men aged of 29 to 40, who had taken no anti-inflammatory drug at least for the last 10 days before testing, into a syringe containing 0.1 volume of 40 U/ml heparin aqueous solution (a product of Green Cross Corp., Japan).
(§2) Compound A was dissolved in a saline, and the solution obtained was used in the experiment.
(§3) As an aggregation inducing agent, an aqueous solution prepared by dissolving epinephrine or a platelet activating factor (hereinafter, PAF) in 25 mM Tris HCl-130 mM NaCl aqueous solution (pH 7.4) was used in the experiment.
(§4) 5 μl of saline solution of Compound A prepared in 1-4 was added to 1 ml of the whole blood, neutrophil suspension or PRP and an electrode was dipped thereinto. The mixture obtained was incubated for 2 minutes under the conditions that the temperature in cell was 37° C. and the stirring rate was 1000 r.p.m., and then 20 μl of aggregation inducing agent was added to the mixture. 4 minutes later, the variation in impedance (Δ.OMEGA.) was determined using Chrono-log aggregometer (540 type, a product of Chrono-log Co., Ltd). The intensity of the variation gave the aggregation activity. In determining the aggregation of neutrophils, 5 μg/ml of cytochalasin B was added to the incubated mixture, one minute prior to the addition of PAF solution. As a control, saline was used instead of saline solution of Compound A and the aggregation was determined as described above.

For a further data set, the system named is human neutrophils. Briefly: Inhibition by Compound A of PAF-induced adhesion-aggregation of human neutrophils (Impedance method). To be noted: Neutrophil, 10 μM Compound A, 0.02 μM, read-out: Inhibition ratio. The data set is classed as cell-based. As to the method:
as §1
10 ml of the blood obtained above was mixed with 3 ml of a 4.5% dextran aqueous solution, and the mixture was allowed to stand for 1 hour at room temperature. The supernatant was taken and centrifuged at 250 X g for 7 minutes. The precipitate was taken, and 3 ml of 0.2% sodium chloride aqueous solution was added thereto to lyse the red blood cells. The mixture was allowed to stand for 75 seconds and 7 ml of a 1.2% sodium chloride aqueous solution was added thereto. […] It was confirmed that the surviving ratio of nuetrophil in the resulting suspension was over 95% as determined by the trypan blue staining method. […]
5 μl of saline solution of Compound A prepared in 1-4 was added to 1 ml of the whole blood, neutrophil suspension or PRP and an electrode was dipped thereinto. […] 4 minutes later, the variation in impedance (Δ.OMEGA.) was determined using Chrono-log aggregometer (540 type, a product of Chrono-log Co., Ltd). […] As a control, saline was used instead of saline solution of Compound A and the aggregation was determined as described above.

Data set [2] deals with human neutrophil aggregation. Briefly: Inhibition by Compound A of PAF-induced human neutrophil aggregation (Optical method). The data set is classed as cell-based. The method, then: as §1
10 ml of the blood obtained above was mixed with 3 ml of a 4.5% dextran aqueous solution, and the mixture was allowed to stand for 1 hour at room temperature. The supernatant was taken and centrifuged at 250 X g for 7 minutes. The precipitate was taken, and 3 ml of 0.2% sodium chloride aqueous solution was added thereto to lyse the red blood cells. The mixture was allowed to stand for 75 seconds and 7 ml of a 1.2% sodium chloride aqueous solution was added thereto. The mixture was centrifuged at 250 X g for 7 minutes to obtain the precipitate which contained mainly neutrophils. When the red blood cell was not sufficiently removed, the above procedure for lysis of red blood cell was repeated. The precipitate was washed with 10 ml of a phosphate buffer solution containing 0.5% glucose (hereinafter, PBSG), and the mixture was centrifuged at 250 X g for 7 minutes to take the precipitate. The above washing procedure was repeated twice, and the precipitate obtained was added to PBSG or PBSG containing 0.5% human serum albumin to obtain the neutrophil suspension. It was confirmed that the surviving ratio of nuetrophil in the resulting suspension was over 95% as determined by the trypan blue staining method. A blood cell counter (a product of Nihon Koden Co., Ltd) was used to count the number of neutrophils. The mixture was preserved at 4° C. before use. […]
5 μl of saline solution of Compound A prepared in 1-4) was added to 1 ml of neutrophil suspension and the mixture was incubated for 2 minutes under the conditions that the temperature in cell was 37° C. and the stirring rate was 1,000 r.p.m. […] The aggregation was determined optically using the Chrono-log aggregometer. As a control, saline was used instead of saline solution of Compound A and the aggregation was determined as described above.

The subject of data set [3] is human platelet aggregation. Briefly: Inhibition by Compound A of PAF-induced human platelet aggregation. The data set is classed as cell-based. The method, then:
as §1
The blood obtained in (1) was centrifuged at 190 X g for 7 minutes. The supernatant was taken to obtain the platelets rich plasma (hereinafter, PRP). Platelet counter (a product of Toa Co., Ltd) was used to count the number of platelets.
as §2, §3, §4

A short description of data set [4]: Acute toxicity (LD50) in rats, oral. To be noted: rat, in vivo, administered orally.
Another data set relates to diabetic retinopathy. Briefly: Clinical trial in patients having diabetic retinopathy, funduscopic observation. The data set is classed as in vivo, human. Also on record: key to Funduscopic observation: microaneurysms / Funduscopic observation: dot hemorrhage: +: observed; ±: slightly observed; -: not observed. To be noted: 300 to 900 mg daily orally; for Funduscopic observation: microaneurysms / Funduscopic observation: dot hemorrhage: + + at start. The method, then: Compound A was administered orally at dose of 300 to 900 mg daily to patients having diabetic retinopathy for a period of a month to about 2 years. Microaneurysms, dot hemorrhage, retina edema, hard exudate, arterialization and maculopathy in Fundus oculi, which were indications for retinopathy, were investigated using a funduscope.

Another data set concerns blood glucose level. To be noted: as disclosed in U.S. Pat. No. 4,138,491; cited from earlier work.
A further data set relates to platelet aggregation. To be noted: as disclosed in U.S. Pat. No. 4,138,491; cited from earlier work.
Another data set relates to retinal vesseles. The conditions noted are these: injected into retinal artery of rabbit; cited from earlier work.
Setting [5] is: patient B, left eye, 116 weeks after administration.
Where [6] appears, read: patient B, right eye, 116 weeks after administration.

The IC50 is the concentration that gives 50% inhibition. Usually LD50 stands for the dose at which mortality reaches 50%. In the case of `c1ccc(C(CC2=NCCN2)c2ccccn2)cc1` (stereo not drawn) [Compound A, 2-(2-phenyl-2-(2-pyridyl))ethyl-2-imidazoline], the IC50 is 5.6 µM in data set [1] (Homo sapiens, in vitro, Epinephrine (2 μM), individual values of n = 3, read-out: IC50); 5.2 ± 0.7 µM in [1] (Homo sapiens, in vitro, Epinephrine (2 μM), n = 3, read-out: IC50, average ± s.d.); 2.8 µM in data set [1] (Homo sapiens, induced by PAF (0.02 μM), n=3, read-out: IC50, average); approximately 5 µM in data set [1] (Homo sapiens, induced by epinephrine (2 μM), n=3, read-out: IC50); 4.2 µM and 5.8 µM in [1] (in vitro, Epinephrine (2 μM), individual values of n = 3, read-out: IC50); 1.8 µM and 4.6 µM in data set [1] (in vitro, PAF (0.02 μM), individual values of n = 3, read-out: IC50). Besides, the inhibition at 10 µM in the data set with human neutrophils amounted to 59%; in [2] (Homo sapiens, Neutrophil, 10 μM Compound A, PAF, 2 μM, optical method, read-out: inhibition ratio) it was 83%; in data set [3] (Homo sapiens, Platelet, 10 μM Compound A, PAF, 2 μM, read-out: Inhibition ratio) it was 0%. The inhibition at 5 µM in data set [2] (Homo sapiens, Neutrophil, 5 μM Compound A, PAF, 2 μM, optical method, read-out: inhibition ratio) is 68%. Moreover, in data set [2] (at low concentration), the “PAF-induced human neutrophil aggregation” value is “inhibited the PAF-induced human neutrophil aggregation at low concentration”. The inhibition at 50 µM in data set [3] (Homo sapiens, Platelet, 50 μM Compound A, PAF, 2 μM, read-out: Inhibition ratio) is 45%. Moreover, the inhibition at 100 µM in data set [3] (Homo sapiens, Platelet, 100 μM Compound A, PAF, 2 μM, read-out: Inhibition ratio) was determined as 82%. Also, the “PAF-induced human platelet aggregation” value in [3] (low versus high concentration) is “did not inhibit PAF-induced human platelet aggregation at a low concentration but did at a high concentration”. The same compound returned an LD50 in data set [4] of 867 mg/kg. Besides, in the data set on diabetic retinopathy (3 patients), the “microaneurysms and dot hemorrhage” value is “disappearance or reduction of microaneurysms and dot hemorrhage were observed”. The “Funduscopic observation: microaneurysms” value in the data set with diabetic retinopathy (patient A, left eye, 58 weeks after administration) is on record as “-”; in the data set on diabetic retinopathy (patient A, right eye, 58 weeks after administration), “-”; in the data set on diabetic retinopathy (setting [5]), “-”; in the data set on diabetic retinopathy (setting [6]) it was “-”. Also, the “Funduscopic observation: dot hemorrhage” value in the data set with diabetic retinopathy (setting [5]) is on record as “-”; with diabetic retinopathy (setting [6]), “-”; with diabetic retinopathy (patient C, left eye, 109 weeks after administration) it was “±”; with diabetic retinopathy (patient C, right eye, 109 weeks after administration), “±”. Moreover, the “blood glucose level” value in the data set on blood glucose level is reported as “reduces the blood glucose level”. Besides, the “platelet aggregation” value in the data set on platelet aggregation is listed as “inhibits platelet aggregation”.

In the case of `CCCCCCCCCCCCCCCCOCC(COP(=O)([O-])OCC[N+](C)(C)C)OC(C)=O` (stereo not drawn) [PAF], the “state of retinal vessels” value in the data set on retinal vesseles is reported as “a sludge-like state is observed in retinal vesseles”.

(Values after patent publication US4746668A, “Method for treating retinopathy” (Daiichi Seiyaku Co., Ltd., priority 1986, dated 1988).)
